Results from PubChem BioAssay (NCI).
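In this assay, cells in 96-well plates receive the compound at five concentrations for 48 hours. Endpoints are linearly interpolated between the surrounding concentrations. At the GI50, growth is halved. TGI: total growth inhibition.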

How the values were obtained:
Test in all cases: NCI-60 cell line screen, 48 h
SR leukemia = test system: SR leukemia
LOX IMVI melanoma = test system: LOX IMVI melanoma
OVCAR-8 ovarian = test system: OVCAR-8 ovarian
SN12C renal = test system: SN12C renal
CAKI-1 renal = test system: CAKI-1 renal
786-0 renal = test system: 786-0 renal
M14 melanoma = test system: M14 melanoma
RPMI-8226 leukemia = test system: RPMI-8226 leukemia
IGROV1 ovarian = test system: IGROV1 ovarian
NCI/ADR-RES ovarian = test system: NCI/ADR-RES ovarian

Row | SMILES | TGI (SR leukemia) | TGI (LOX IMVI melanoma) | TGI (OVCAR-8 ovarian) | TGI (SN12C renal) | TGI (CAKI-1 renal) | TGI (786-0 renal) | TGI (M14 melanoma) | TGI (RPMI-8226 leukemia) | TGI (IGROV1 ovarian) | GI50 (RPMI-8226 leukemia) | GI50 (NCI/ADR-RES ovarian) | TGI (NCI/ADR-RES ovarian) | GI50 (LOX IMVI melanoma) | GI50 (OVCAR-8 ovarian) | GI50 (SN12C renal) | GI50 (CAKI-1 renal) | GI50 (786-0 renal) | GI50 (IGROV1 ovarian) | GI50 (SR leukemia) | GI50 (M14 melanoma)
1 | O=C1C2C3C=C4c5ccccc5N(c5ccccc5)C4(C2C(=O)N1c1ccccc1)C1C(=O)N(c2ccccc2)C(=O)C31 (stereo unspecified) | > 100 µM | > 100 µM | > 100 µM | > 100 µM | > 100 µM | > 100 µM | > 100 µM |  |  |  |  |  |  |  |  |  |  |  |  | 
2 | O=c1ncccn1[C@@H]1O[C@H](CO)[C@H](O)C1O (stereo partly specified) | > 100 µM | > 100 µM | > 100 µM | > 100 µM | > 100 µM | > 100 µM | > 100 µM | > 100 µM | > 100 µM |  |  |  |  |  |  |  |  |  |  | 
3 | O=C(Oc1cccnc1)c1cccnc1Nc1ccnc(C(F)(F)F)c1 |  | 26 µM | > 100 µM | > 100 µM | 30.2 µM | 22.4 µM |  | 23.7 µM | > 100 µM | 3.94 µM | > 100 µM | > 100 µM | 8.16 µM | 64.9 µM | 6.48 µM | 4.73 µM | 5.17 µM | 9.51 µM |  | 
4 | CO/N=C(\COc1ccc2c(c1)[nH]c1ccccc12)c1ccc(OC)cc1 | > 100 µM | > 100 µM | 27.5 µM | > 100 µM |  | > 100 µM | > 100 µM | > 100 µM | > 100 µM | > 100 µM | > 100 µM | > 100 µM | 19.6 µM | 5.84 µM | 57.9 µM |  | 7.18 µM | 31.5 µM | 71.6 µM | > 100 µM
5 | CC1=C2C(=C[C@@](C)(CO)[C@@H]2OC(=O)N(C)CCN(C)C(=O)OC(C)(C)C)C(=O)[C@](C)(O)C12CC2 | > 50 µM | > 50 µM | 45.7 µM | > 50 µM |  | 37.8 µM | 20.8 µM | 43.8 µM | 18.8 µM | 5.83 µM | 3.05 µM | 23.7 µM | 12.2 µM | 6.51 µM | 11.1 µM |  | 11.6 µM | 1.97 µM | 2.39 µM | 6.36 µM
6 | CCCN1C(=O)NC(=O)C(CC)(N2C(=O)c3c(F)c(F)c(F)c(F)c3C2=O)C1=O (stereo unspecified) |  | 4.34 µM | 7.81 µM | 6.14 µM | 3.75 µM | 7.75 µM | 6.37 µM | 3.14 µM | 3.67 µM | 0.596 µM | 2.91 µM | 10.5 µM | 1.66 µM | 2.54 µM | 2.16 µM | 1.86 µM | 2.66 µM | 1.58 µM |  | 2.2 µM
7 | COC(=O)c1sc(C(=O)OC)c2c1CS(=O)C2 |  | > 100 µM | > 100 µM |  | > 100 µM | > 100 µM | > 100 µM | > 100 µM | > 100 µM |  |  |  |  |  |  |  |  |  |  | 
8 | CN1CCN(C(=S)N(C)C(=O)c2ccco2)CC1 | > 100 µM | > 100 µM | > 100 µM | > 100 µM |  | > 100 µM | > 100 µM | > 100 µM | > 100 µM |  |  |  |  |  |  |  |  |  |  | 
